Laboratory results as given in article PMC11233931, “Remodeling tumor‐associated macrophage for anti‐cancer effects by rational design of irreversible inhibition of mitogen‐activated protein kinase‐activated protein kinase 2” (MedComm, 2024).

What was measured:
Assay in all cases: Eurofins kinase selectivity profile against 380 other human recombinant kinases (Table S2)
Type in all cases: biochemical
[1] = biological target: T1, 380 human recombinant protein kinases (Homo sapiens, UniProt O15146); conditions: MuSK(h), read-out: Inhibition rate
T1 construct: purchased Eurofins (Celle Lévescault)
T1 sequence (O15146 24-869): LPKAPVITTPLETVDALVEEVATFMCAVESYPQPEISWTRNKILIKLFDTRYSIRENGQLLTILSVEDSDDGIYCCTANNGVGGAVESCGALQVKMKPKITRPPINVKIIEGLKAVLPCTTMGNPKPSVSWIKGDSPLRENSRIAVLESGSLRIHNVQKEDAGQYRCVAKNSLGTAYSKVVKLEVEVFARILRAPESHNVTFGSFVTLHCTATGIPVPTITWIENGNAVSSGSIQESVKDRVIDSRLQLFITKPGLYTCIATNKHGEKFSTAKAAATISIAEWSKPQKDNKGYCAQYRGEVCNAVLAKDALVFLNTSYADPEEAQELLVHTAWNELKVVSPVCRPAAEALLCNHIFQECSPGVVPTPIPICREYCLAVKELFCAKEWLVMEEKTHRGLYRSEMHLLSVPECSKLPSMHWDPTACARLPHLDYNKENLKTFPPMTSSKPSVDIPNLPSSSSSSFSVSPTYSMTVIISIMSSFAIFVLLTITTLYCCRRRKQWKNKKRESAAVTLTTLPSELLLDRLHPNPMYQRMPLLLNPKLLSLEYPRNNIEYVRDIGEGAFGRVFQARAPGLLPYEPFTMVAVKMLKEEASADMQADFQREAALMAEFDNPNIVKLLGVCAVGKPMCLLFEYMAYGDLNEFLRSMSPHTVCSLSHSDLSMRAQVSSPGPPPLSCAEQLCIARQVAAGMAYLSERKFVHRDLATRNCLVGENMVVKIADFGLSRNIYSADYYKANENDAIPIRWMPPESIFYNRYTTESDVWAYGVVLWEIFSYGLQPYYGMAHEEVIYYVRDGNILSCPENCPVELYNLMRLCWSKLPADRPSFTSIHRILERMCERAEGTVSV
Outline: (§1)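 Profiling against 380 human recombinant kinases carried out by Eurofins at various compound concentrations.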

[2] = biological target: T2, 380 human recombinant protein kinases (Homo sapiens, UniProt P06493); conditions: CDK1/cyclinB(h), read-out: Inhibition rate
T2 construct: purchased Eurofins (Celle Lévescault)
T2 sequence (P06493 whole entry): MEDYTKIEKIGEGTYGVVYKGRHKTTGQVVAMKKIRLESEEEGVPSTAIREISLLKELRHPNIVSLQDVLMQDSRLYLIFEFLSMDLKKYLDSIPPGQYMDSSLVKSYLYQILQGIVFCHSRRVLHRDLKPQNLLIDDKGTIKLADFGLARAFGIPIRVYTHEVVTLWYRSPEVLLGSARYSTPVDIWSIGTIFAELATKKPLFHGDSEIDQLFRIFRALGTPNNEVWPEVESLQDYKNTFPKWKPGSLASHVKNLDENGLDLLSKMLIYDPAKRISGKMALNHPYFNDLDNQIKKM
Outline: as §1

[3] = biological target: T3, 380 human recombinant protein kinases (Homo sapiens, UniProt P0C1S8); conditions: Wee1B(h), read-out: Inhibition rate (%)
T3 construct: purchased Eurofins (Celle Lévescault)
T3 sequence (P0C1S8 whole entry): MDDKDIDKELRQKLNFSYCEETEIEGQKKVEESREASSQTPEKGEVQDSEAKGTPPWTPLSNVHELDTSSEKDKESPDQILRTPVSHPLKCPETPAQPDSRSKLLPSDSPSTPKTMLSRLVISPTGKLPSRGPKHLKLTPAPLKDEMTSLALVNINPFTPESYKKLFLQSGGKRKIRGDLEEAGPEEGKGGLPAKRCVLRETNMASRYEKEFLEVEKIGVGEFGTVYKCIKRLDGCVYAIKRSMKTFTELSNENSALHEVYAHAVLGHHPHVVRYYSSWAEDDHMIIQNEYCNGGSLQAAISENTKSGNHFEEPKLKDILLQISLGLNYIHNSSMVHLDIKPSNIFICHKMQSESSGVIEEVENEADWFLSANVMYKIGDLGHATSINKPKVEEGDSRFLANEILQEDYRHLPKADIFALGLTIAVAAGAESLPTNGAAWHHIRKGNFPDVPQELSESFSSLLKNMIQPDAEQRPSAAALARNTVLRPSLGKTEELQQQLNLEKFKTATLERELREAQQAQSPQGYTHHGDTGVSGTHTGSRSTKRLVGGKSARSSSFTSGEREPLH
Outline: as §1

[4] = biological target: T4, 380 human recombinant protein kinases (Homo sapiens, UniProt P19525); conditions: PKR(h), read-out: Inhibition rate
T4 construct: purchased Eurofins (Celle Lévescault)
T4 sequence (P19525 whole entry): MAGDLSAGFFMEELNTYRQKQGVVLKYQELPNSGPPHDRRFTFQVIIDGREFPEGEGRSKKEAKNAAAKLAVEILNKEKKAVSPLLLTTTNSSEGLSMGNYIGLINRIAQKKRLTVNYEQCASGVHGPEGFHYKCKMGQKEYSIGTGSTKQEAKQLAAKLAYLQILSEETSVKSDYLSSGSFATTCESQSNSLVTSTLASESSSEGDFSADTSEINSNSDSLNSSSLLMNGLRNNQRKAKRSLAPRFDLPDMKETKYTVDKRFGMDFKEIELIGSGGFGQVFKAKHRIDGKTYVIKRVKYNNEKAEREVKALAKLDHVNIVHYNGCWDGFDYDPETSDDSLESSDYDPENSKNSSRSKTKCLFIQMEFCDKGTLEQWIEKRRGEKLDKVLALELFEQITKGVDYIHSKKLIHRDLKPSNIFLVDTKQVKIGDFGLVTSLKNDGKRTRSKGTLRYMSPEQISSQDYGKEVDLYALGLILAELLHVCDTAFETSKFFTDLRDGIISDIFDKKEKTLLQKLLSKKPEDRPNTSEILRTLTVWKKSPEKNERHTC
Outline: as §1

[5] = biological target: T5, 380 human recombinant protein kinases (Homo sapiens, UniProt P37023); conditions: ALK1(h), read-out: Inhibition rate
T5 construct: purchased Eurofins (Celle Lévescault)
T5 sequence (P37023 22-503): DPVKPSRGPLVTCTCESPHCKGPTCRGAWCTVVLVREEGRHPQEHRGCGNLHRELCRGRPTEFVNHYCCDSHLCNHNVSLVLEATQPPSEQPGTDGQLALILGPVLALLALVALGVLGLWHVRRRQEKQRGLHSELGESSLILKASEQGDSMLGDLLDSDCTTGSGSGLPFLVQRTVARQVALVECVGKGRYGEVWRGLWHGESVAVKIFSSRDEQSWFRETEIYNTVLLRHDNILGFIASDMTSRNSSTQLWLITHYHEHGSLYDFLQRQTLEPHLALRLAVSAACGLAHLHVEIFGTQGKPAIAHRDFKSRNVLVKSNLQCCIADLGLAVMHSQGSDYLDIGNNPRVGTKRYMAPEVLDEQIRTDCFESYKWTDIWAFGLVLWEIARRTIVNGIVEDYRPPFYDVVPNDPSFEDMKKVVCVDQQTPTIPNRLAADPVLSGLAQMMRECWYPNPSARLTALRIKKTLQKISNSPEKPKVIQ
Outline: as §1

[6] = biological target: T6, 380 human recombinant protein kinases (Homo sapiens, UniProt P43403); conditions: ZAP-70(h), read-out: Inhibition rate (%)
T6 construct: purchased Eurofins (Celle Lévescault)
T6 sequence (P43403 1-619): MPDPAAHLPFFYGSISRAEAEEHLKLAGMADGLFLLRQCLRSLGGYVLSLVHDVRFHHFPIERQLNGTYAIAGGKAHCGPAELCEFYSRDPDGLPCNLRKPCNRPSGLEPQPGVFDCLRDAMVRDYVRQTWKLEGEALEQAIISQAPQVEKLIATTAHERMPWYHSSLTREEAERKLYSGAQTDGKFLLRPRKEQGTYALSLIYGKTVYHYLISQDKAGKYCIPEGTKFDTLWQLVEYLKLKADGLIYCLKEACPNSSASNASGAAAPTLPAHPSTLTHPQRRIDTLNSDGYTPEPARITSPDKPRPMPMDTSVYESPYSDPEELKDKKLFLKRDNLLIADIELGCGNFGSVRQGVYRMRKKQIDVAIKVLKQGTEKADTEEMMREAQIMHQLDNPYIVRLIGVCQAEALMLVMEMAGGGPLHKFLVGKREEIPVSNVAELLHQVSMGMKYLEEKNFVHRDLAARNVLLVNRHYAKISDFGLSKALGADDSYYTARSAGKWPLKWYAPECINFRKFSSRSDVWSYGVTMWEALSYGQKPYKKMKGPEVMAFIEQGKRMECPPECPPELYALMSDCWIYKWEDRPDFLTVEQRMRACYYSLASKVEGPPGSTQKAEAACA
Outline: as §1

[7] = biological target: T7, 380 human recombinant protein kinases (Homo sapiens, UniProt P49760); conditions: CLK2(h), read-out: Inhibition rate
T7 construct: purchased Eurofins (Celle Lévescault)
T7 sequence (P49760 whole entry): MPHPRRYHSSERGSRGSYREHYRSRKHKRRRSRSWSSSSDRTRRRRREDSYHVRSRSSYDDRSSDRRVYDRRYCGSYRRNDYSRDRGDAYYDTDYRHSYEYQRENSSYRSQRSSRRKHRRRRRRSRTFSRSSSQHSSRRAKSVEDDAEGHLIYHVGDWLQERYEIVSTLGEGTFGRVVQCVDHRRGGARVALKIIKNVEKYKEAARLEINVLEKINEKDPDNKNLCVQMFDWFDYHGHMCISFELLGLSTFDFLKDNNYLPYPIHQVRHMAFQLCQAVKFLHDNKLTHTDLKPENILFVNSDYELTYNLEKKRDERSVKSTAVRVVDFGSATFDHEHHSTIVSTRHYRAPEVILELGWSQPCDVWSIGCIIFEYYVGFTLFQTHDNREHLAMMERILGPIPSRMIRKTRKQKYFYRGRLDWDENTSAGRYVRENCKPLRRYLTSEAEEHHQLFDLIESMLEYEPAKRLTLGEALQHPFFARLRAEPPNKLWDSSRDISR
Outline: as §1

[8] = biological target: T8, 380 human recombinant protein kinases (Homo sapiens, UniProt P53779); conditions: JNK3(h), read-out: Inhibition rate
T8 construct: purchased Eurofins (Celle Lévescault)
T8 sequence (P53779 whole entry): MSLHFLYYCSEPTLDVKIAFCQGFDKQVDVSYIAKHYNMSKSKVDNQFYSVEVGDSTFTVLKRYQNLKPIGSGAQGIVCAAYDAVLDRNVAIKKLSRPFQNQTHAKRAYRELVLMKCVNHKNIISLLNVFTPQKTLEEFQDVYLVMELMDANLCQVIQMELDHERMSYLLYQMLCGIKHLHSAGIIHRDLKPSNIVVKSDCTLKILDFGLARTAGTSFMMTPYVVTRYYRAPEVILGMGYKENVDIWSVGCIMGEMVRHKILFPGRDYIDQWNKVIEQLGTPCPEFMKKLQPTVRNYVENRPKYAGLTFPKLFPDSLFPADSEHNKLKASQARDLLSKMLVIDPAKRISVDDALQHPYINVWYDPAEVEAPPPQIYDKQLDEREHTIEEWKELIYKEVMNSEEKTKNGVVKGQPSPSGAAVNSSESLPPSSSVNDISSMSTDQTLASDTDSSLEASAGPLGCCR
Outline: as §1

[9] = biological target: T9, 380 human recombinant protein kinases (Homo sapiens, UniProt Q00536); conditions: CDK16/cyclinY(h), read-out: Inhibition rate
T9 construct: purchased Eurofins (Celle Lévescault)
T9 sequence (Q00536 whole entry): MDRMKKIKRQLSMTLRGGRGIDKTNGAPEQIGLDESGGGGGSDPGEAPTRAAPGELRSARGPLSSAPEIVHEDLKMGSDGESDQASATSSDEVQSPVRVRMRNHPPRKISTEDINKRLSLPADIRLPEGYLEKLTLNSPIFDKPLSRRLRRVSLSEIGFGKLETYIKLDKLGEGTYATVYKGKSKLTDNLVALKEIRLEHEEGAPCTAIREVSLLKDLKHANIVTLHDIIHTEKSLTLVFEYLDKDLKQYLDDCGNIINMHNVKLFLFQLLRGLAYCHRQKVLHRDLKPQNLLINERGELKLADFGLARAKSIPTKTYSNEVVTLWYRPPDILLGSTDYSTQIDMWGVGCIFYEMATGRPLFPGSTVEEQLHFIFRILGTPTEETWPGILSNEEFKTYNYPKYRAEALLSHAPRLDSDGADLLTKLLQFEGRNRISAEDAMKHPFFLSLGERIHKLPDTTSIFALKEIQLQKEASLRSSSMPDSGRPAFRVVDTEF
Outline: as §1

[10] = biological target: T10, 380 human recombinant protein kinases (Homo sapiens, UniProt Q96GD4); conditions: Aurora-B(h), read-out: Inhibition rate
T10 construct: purchased Eurofins (Celle Lévescault)
T10 sequence (Q96GD4 whole entry): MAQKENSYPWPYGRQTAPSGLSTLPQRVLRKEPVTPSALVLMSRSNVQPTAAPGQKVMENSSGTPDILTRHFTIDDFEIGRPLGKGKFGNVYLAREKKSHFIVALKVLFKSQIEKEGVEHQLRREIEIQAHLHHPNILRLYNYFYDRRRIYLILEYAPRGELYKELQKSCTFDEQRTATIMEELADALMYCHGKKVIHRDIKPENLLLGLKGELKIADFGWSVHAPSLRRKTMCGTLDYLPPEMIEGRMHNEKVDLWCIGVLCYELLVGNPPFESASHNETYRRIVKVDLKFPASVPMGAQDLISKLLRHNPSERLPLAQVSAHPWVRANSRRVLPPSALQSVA
Outline: as §1

[11] = biological target: T11, 380 human recombinant protein kinases (Homo sapiens, UniProt Q9C098); conditions: DCAMKL3(h), read-out: Inhibition rate
T11 construct: purchased Eurofins (Celle Lévescault)
T11 sequence (Q9C098 whole entry): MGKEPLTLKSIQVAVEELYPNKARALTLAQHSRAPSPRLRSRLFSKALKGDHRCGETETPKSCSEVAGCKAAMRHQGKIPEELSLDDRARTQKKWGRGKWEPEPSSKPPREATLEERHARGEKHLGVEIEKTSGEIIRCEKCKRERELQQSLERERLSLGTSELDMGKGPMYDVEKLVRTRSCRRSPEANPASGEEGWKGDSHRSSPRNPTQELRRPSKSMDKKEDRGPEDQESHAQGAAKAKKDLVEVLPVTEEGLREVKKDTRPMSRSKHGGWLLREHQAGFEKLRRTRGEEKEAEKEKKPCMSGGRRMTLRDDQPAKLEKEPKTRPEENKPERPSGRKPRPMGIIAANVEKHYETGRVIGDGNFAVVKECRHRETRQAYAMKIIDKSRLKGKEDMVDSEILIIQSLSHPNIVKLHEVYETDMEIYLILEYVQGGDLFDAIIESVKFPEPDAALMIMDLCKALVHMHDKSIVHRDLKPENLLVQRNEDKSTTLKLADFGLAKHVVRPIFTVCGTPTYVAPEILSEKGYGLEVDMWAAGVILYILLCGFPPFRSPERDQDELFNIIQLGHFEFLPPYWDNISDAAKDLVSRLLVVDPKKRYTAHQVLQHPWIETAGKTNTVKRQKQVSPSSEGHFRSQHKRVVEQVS
Outline: as §1

C=CC(=O)Nc1cc(-c2cc(-c3cc4c([nH]3)CCNC4=O)ccn2)ccc1OC(F)(F)F [compound 11] gave an inhibition at 0.01 µM ([1]; 10 nM) of 7%, an inhibition at 0.1 µM ([1]; 100 nM) of 7% and an inhibition at 1 µM ([1]; 1000 nM) of 7%. The inhibition at 0.01 µM ([2]; 10 nM) was 0%, the inhibition at 0.1 µM ([2]; 100 nM) was 10% and the inhibition at 1 µM ([2]; 1000 nM) was 43%. It also gave an inhibition at 0.01 µM ([3]; 10 nM) of -2%, an inhibition at 0.1 µM ([3]; 100 nM) of -4% and an inhibition at 1 µM ([3]; 1000 nM) of 3%. It also gave an inhibition at 0.01 µM ([4]; 10 nM) of 3%, an inhibition at 0.1 µM ([4]; 100 nM) of 3% and an inhibition at 1 µM ([4]; 1000 nM) of 9%. For the same compound, the inhibition at 0.01 µM ([5]; 10 nM) was -16%, the inhibition at 0.1 µM ([5]; 100 nM) was -12% and the inhibition at 1 µM ([5]; 1000 nM) was -9%. The inhibition at 0.01 µM ([6]; 10 nM) was 8%, the inhibition at 0.1 µM ([6]; 100 nM) was 0% and the inhibition at 1 µM ([6]; 1000 nM) was -13%. It also gave an inhibition at 0.01 µM ([7]; 10 nM) of 1%, an inhibition at 0.1 µM ([7]; 100 nM) of 10% and an inhibition at 1 µM ([7]; 1000 nM) of 42%. The inhibition at 0.01 µM ([8]; 10 nM) was 4%, the inhibition at 0.1 µM ([8]; 100 nM) was 6% and the inhibition at 1 µM ([8]; 1000 nM) was 38%. The inhibition at 0.01 µM ([9]; 10 nM) was -1%, the inhibition at 0.1 µM ([9]; 100 nM) was 7% and the inhibition at 1 µM ([9]; 1000 nM) was -13%. For the same compound, the inhibition at 0.01 µM ([10]; 10 nM) was 4%, the inhibition at 0.1 µM ([10]; 100 nM) was 19% and the inhibition at 1 µM ([10]; 1000 nM) was 27%. For the same compound, the inhibition at 0.01 µM ([11]; 10 nM) was -1%, the inhibition at 0.1 µM ([11]; 100 nM) was 6% and the inhibition at 1 µM ([11]; 1000 nM) was 26%.
